# Experimental data reported in patent US20110256121A1, “METHODS AND KITS FOR DIAGNOSING OR MONITORING AUTOIMMUNE AND CHRONIC INFLAMMATORY DISEASES” (THE REGENTS OF THE UNIVERSITY OF MICHIGAN, priority 2008, published 2011).
# How the values were obtained:
# Assay type in all cases: cell-based, human
# [1] = test system: KIR; assay: KIR expression on 5-azaC treated T cells, anti-KIR antibody cocktail, flow cytometry
# Description: Antibodies: Unconjugated and PE-conjugated anti-CD158d (KIR2DL4) were purchased from R&D Systems, Minneapolis, Minn. and unconjugated and PE-conjugated anti-NKB1 (KIR3DL1), anti-perforin antibodies and isotype matched control antibodies were obtained from BD PharMingen, San Diego Calif. PE-conjugated anti-CD158i (KIR2DS4) was obtained from Beckman Coulter (Fullerton Calif.). Anti-CD4-Cy5, anti-CD8-FITC, and PE-conjugated antibodies to and KIR2DS2 (anti-CD158b) were obtained from BD PharMingen, KIR2DL1/2DS2 (CD158a/h) and KIR3DL1/3DS1 (CD158e1/e2) from Beckman Coulter, and 2DL1/2DL3/2DS2 (anti-CD158 b1/b2/j (GL183) was purchased from R&D Systems. Minneapolis, Minn.). Ten microliters of each PE-conjugated anti-KIR antibody were mixed to form a “cocktail” used to stain the cells. […] Following staining, the cells were fixed in 1% paraformaldehyde and kept at 4° C. until analyzed. […]
# CD4+ and CD8+ T cells demethylate and express KIR genes following treatment with the DNA methylation inhibitor 5-azaC. PBMC from 11 healthy subjects were stimulated with PHA, treated with 5-azaC, then KIR expression was measured on untreated and treated CD4+ and CD8+ cells using a “cocktail” of anti-KIR antibodies and flow cytometry as described in Materials and Methods above.
# [2] = test system: KIR2DL2 promoter; assay: KIR2DL2 promoter reporter construct assay in T cells
# Description: Reporter construct assays. Amplified KIR promoter fragments were subcloned into the EcoRI site of the promoterless pmaxFP-Yellow-PRL vector (Amaxa GmbH). Plasmids were purified using QIAGEN EndoFree Plasmid Kits (QIAGEN), and 2 μg of DNA transfected into untreated or 5-azaC treated human T cells using the human T cell nucleofector kit (Amaxa GmbH) and the manufacturer's protocol. Controls included cotransfection with pmaxGFP (Amaxa GmbH) and transfection with the promoterless reporter vector. Fluorescence was measured by flow cytometry. Site directed mutagenesis. Mutations were introduced into the same pmaxFP-Yellow-PRL KIR2DL2 and KIR2DL4 promoter constructs using the QuickChange Multi Site-Directed Mutagenesis Kit (Stratagene, La Jolla, Calif.). The changes include a […]→[…] mutation at −78→−71 in the Sp1 site, a CCC→ACA mutation at −61→−59 in the Ets1 site, or both, in the KIR2DL2 promoter, and a TTT→GGG mutation at −73→−71 in the Ets1 site, a CCC→ACA mutation at −61→−59 in the Ets1 site, or both, in the KIR2DL4 promoter. A separate G→A mutation in the AML site was also introduced into both promoters at −98 (16; 17). The constructs were transfected in to PHA stimulated, 5-azaC treated T cells as above. Controls included transfection with pmaxGFP.
# Effects of 5-azaC on KIR transcriptional activator-DNA interactions. […]
# [3] = test system: KIR2DL2 and KIR2DL4 promoters; assay: Chromatin immunoprecipitation (ChIP) assays; conditions: 5-azaC treated vs untreated, n=3, p<0.03
# Description: Chromatin immunoprecipitation (ChIP) assays. Transcription factor binding to KIR2DL2 and KIR2DL4 promoter sequences was determined using mAb to Sp1 (Upstate Biotechnology), Ets1 and AML1 (Abcam) and the ChIP-IT kit with protocols provided by the manufacturer (Active Motif, Carlsbad, Calif.). Briefly, 4.5×10^7 untreated and 5-azaC treated T cells were crosslinked, sonicated, chromatin immunoprecipitated with the relevant mAb, and precipitated DNA amplified by real-time PCR using a Rotor-Gene 3000. Standard curves were determined for each primer set by dilution of the total input 5-azaC treated DNA in a 0.1-100 ng range. The amount of each sequence in the input and precipitated DNA was calculated from the cycle threshold (CT) for each primer set using the standard curves. The primers used were: […]
# ChIP assays were then used to compare transcription factor binding to the KIR2DL2 and KIR2DL4 promoters in untreated and 5-azaC treated cells. […] The reason for this is uncertain, but may reflect the structural differences in the KIR2DL2 and KIR2DL4 promoters.
smiles,measurement,setting,value
"Nc1ncn([C@@H]2O[C@H](CO)[C@@H](O)[C@H]2O)c(=O)n1 [5-azaC, 5-azacytidine]",expression of additional KIR proteins on T cells,[1],"induced expression of additional KIR proteins including KIR3DL1, KIR2DS4 and KIR2DL2/2DL3"
same,KIR expression on CD4+ and CD8+ T cells,"[1]; 11 healthy subjects, PHA, anti-KIR cocktail",significantly increases KIR expression
same,increase of KIR2DL2 promoter function,"[2]; 5-azaC treated vs untreated T cells, FIG. 29b, p<0.005",3-4 fold
same,increase of expression of the unmodified KIR2DL2 construct,"[2]; relative to untreated T cells, FIG. 29c",~2 fold
same,"binding of Sp1, Ets1 and AML1 to both promoters",[3],increases binding of all 3 transcription factors
